Laboratory results: ChEMBL document CHEMBL1926539, “Discovery of novel selective inhibitors of Staphylococcus aureus β-ketoacyl acyl carrier protein synthase III” (Eur J Med Chem, 2012)
Converted amounts (≈) assume the structure as drawn.

How the values were obtained:
[1] = Inhibition of Staphylococcus aureus recombinant GST-tagged KAS3 expressed in Escherichia coli (DE3) at 1:10 protein to drug ratio by fluorescence quenching analysis
Staphylococcus aureus [2] = test: Antimicrobial activity against Staphylococcus aureus KCTC 1621 after 20 hrs by 2 fold serial broth dilution method; format: functional; conditions: KCTC 1621, 20 h
Staphylococcus aureus [3] = test: Antimicrobial activity against methicillin-resistant Staphylococcus aureus CCARM 3114 after 20 hrs by 2 fold serial broth dilution method; format: functional; conditions: CCARM 3114, 20 h
Escherichia coli = test: Antimicrobial activity against Escherichia coli KCTC 1682 after 20 hrs by 2 fold serial broth dilution method; format: functional; conditions: KCTC 1682, 20 h
Enterococcus faecium = test: Antimicrobial activity against vancomycin-resistant Enterococcus faecium clinical isolate after 20 hrs by 2 fold serial broth dilution method; format: functional
Enterococcus faecalis = test: Antimicrobial activity against Enterococcus faecalis KCTC 2011 after 20 hrs by 2 fold serial broth dilution method; format: functional; conditions: KCTC 2011, 20 h
[4] = Cytotoxicity against mouse NIH/3T3 cells assessed as cell survival at 100 nM after 24 hrs by MTT assay; format: cell-based, NIH3T3; conditions: read-out: Activity
NIH3T3 [5] = test: Cytotoxicity against mouse NIH/3T3 assessed as cell survival at MIC after 24 hrs by MTT assay; format: cell-based; conditions: nih3t3, 24 h
NIH3T3 [6] = test: Cytotoxicity against mouse NIH/3T3 cells after 24 hrs by MTT assay; format: cell-based; conditions: NIH3T3, 24 h

| Compound | Kd [1] | MIC (Staphylococcus aureus [2]) | MIC (Staphylococcus aureus [3]) | MIC (Escherichia coli) | MIC (Enterococcus faecium) | MIC (Enterococcus faecalis) | viability at 24 h, 0.1 µM [4] | Activity (NIH3T3 [5]) | IC50 (NIH3T3 [6]) |
| --- | --- | --- | --- | --- | --- | --- | --- | --- | --- |
| CCOC(=O)/C(C#N)=C/c1ccc(O)cc1O | 44 µM | > 512 µg/mL | 256 µg/mL (≈ 1100 µM) | > 512 µg/mL | > 512 µg/mL | 256 µg/mL (≈ 1100 µM) | – | – | – |
| Cc1nc(CC(=O)c2c(C)cc(O)cc2O)cs1 | > 1000 µM | > 512 µg/mL | > 512 µg/mL | > 512 µg/mL | > 512 µg/mL | > 512 µg/mL | – | – | – |
| Nc1ccc(NC(=O)NC2CCCCC2)cc1[N+](=O)[O-] | 649 µM | > 512 µg/mL | > 512 µg/mL | > 512 µg/mL | 256 µg/mL (≈ 920 µM) | 128 µg/mL (≈ 460 µM) | – | – | – |
| NC(=O)C1(C(N)=O)OC1c1ccc(Cl)c(Cl)c1 (stereo not given) | > 1000 µM | 256 µg/mL (≈ 931 µM) | 256 µg/mL (≈ 931 µM) | 256 µg/mL (≈ 931 µM) | 32 µg/mL (≈ 116 µM) | 256 µg/mL (≈ 931 µM) | – | – | – |
| CCCCCC12CCC(O)(CC1)CC2O (stereo not given) | > 1000 µM | > 512 µg/mL | > 512 µg/mL | > 512 µg/mL | > 512 µg/mL | > 512 µg/mL | – | – | – |
| COc1ccccc1NC(=O)c1nc[nH]n1 | 34.1 µM | > 512 µg/mL | > 512 µg/mL | > 512 µg/mL | > 512 µg/mL | > 512 µg/mL | – | – | – |
| Oc1ccc(/C=N/Nc2ccc(C(F)(F)F)cn2)c(O)c1 | 0.0008 µM | 2 µg/mL (≈ 6.73 µM) | 4 µg/mL (≈ 13.5 µM) | 512 µg/mL (≈ 1720 µM) | 32 µg/mL (≈ 108 µM) | 64 µg/mL (≈ 215 µM) | 67% | – | – |
| Cc1cccc(NC(=O)CC2SC(=O)NC2=O)c1 (stereo not given) | > 1000 µM | > 512 µg/mL | > 512 µg/mL | > 512 µg/mL | > 512 µg/mL | > 512 µg/mL | – | – | – |
| OC[C@@H]1O[C@H](Oc2cccc(Cl)c2)[C@H](O)[C@H](O)[C@H]1O | 0.36 µM | > 512 µg/mL | > 512 µg/mL | > 512 µg/mL | 256 µg/mL (≈ 881 µM) | > 512 µg/mL | – | – | – |
| O=[N+]([O-])c1ccccc1N/N=C/c1ccc(O)c(O)c1 | 3.18 µM | > 512 µg/mL | > 512 µg/mL | > 512 µg/mL | 256 µg/mL (≈ 937 µM) | 256 µg/mL (≈ 937 µM) | – | – | – |
| Oc1ccc(/C=N/c2ccc(Cl)cc2Cl)c(O)c1 | 0.72 µM | 128 µg/mL (≈ 454 µM) | 128 µg/mL (≈ 454 µM) | 64 µg/mL (≈ 227 µM) | > 512 µg/mL | > 512 µg/mL | – | – | – |
| Oc1ccc(/C=N/c2cc(Cl)cc(Cl)c2)c(O)c1 | 0.61 µM | 64 µg/mL (≈ 227 µM) | 128 µg/mL (≈ 454 µM) | 64 µg/mL (≈ 227 µM) | > 512 µg/mL | 512 µg/mL (≈ 1810 µM) | – | – | – |
| O=C(N/N=C/c1ccc(O)c(O)c1O)c1ccc(Cl)cc1Cl | 0.0072 µM | 4 µg/mL (≈ 11.7 µM) | 4 µg/mL (≈ 11.7 µM) | 64 µg/mL (≈ 188 µM) | 32 µg/mL (≈ 93.8 µM) | 32 µg/mL (≈ 93.8 µM) | – | Non-toxic | 10.9 µM |
| Cc1nc2ccccc2c(=O)n1/N=C/c1ccc(O)cc1O | 0.0009 µM | > 512 µg/mL | > 512 µg/mL | > 512 µg/mL | > 512 µg/mL | > 512 µg/mL | – | – | – |
| Oc1ccc(/C=N/Nc2nccnc2Cl)c(O)c1 | 0.0003 µM | 1 µg/mL (≈ 3.78 µM) | 1 µg/mL (≈ 3.78 µM) | > 512 µg/mL | 32 µg/mL (≈ 121 µM) | > 512 µg/mL | – | Non-toxic | 10.3 µM |
| Cc1n[nH]c(C)c1CCC(=O)N/N=C/c1ccc(O)cc1O | 0.23 µM | 128 µg/mL (≈ 423 µM) | 128 µg/mL (≈ 423 µM) | 256 µg/mL (≈ 847 µM) | > 512 µg/mL | > 512 µg/mL | – | – | – |
| CCOC(=O)N/N=C/c1ccc(O)cc1O | 1.48 µM | 256 µg/mL (≈ 1140 µM) | 512 µg/mL (≈ 2280 µM) | > 512 µg/mL | 256 µg/mL (≈ 1140 µM) | > 512 µg/mL | – | – | – |
| C=C/C(C)=C/[C@@]1(C)SC(=O)C(C)=C1O [THIOLACTOMYCIN] | 55.4 µM | – | – | – | 128 µg/mL (≈ 609 µM) | – | 85% | – | – |
